Data: patent publication US12667569B2, “Use of sepiapterin and metabolites thereof to treat radiation exposure” (PTC Therapeutics MP, Inc., priority 2019, dated 2026)
Entries after “also recorded” stand apart in the source; their conditions may differ.

Tests used:
C57L/J mice [1] = assay: Echocardiography: contractile reserve (isoproterenol response), myocardial performance index, IRT after irradiation; assay type: in vivo
Method: Both male and female C57L/J wild-type 6-8-week-old mice were purchased from Jackson Laboratory (Bar Harbor, ME). The mice were housed with a 12:12 h light-dark schedule and access to water and food ad libitum. The experiments were conducted under the guidelines of laboratory animals for biomedical research published by the National Institutes of Health (rev. 2011). The study protocol was approved by the Institutional Animal Care and Use Committee of Virginia Commonwealth University.
(§1) Equal numbers of male and female mice were distributed to each group. While under ketamine/xylazine anesthesia (100 mg/kg and 10 mg/kg, respectively) mice received 5 Gy total body irradiation (TBI), immediately followed by a top-up dose of 6.5 Gy to the thorax, for a total thoracic dose of 11.5 Gy, using a Varian 21 EX LINAC (Palo Alto, CA). Twenty-four hours post-irradiation, mice were treated once daily for 6 days by oral gavage with 1 mg/kg sepiapterin or 5 mg/kg BH4 dissolved in water (FIG. 1).
All mice underwent transthoracic echocardiography at baseline (before irradiation (IR)), at 8, 30, 60, 90 and 180 days, under light anesthesia (30 mg/kg pentobarbital sodium). Echocardiography was performed with the Vevo770 imaging system (VisualSonics, Toronto, Ontario, Canada) and a 30-MHz probe. The heart was visualized in B-mode from parasternal short-axis and apical views. The left ventricular (LV) end-diastolic diameter (EDD), LV end-systolic diameter (ESD), LV anterior wall diastolic thickness (AWDT), and LV posterior wall diastolic thickness (PWDT), LV anterior wall systolic thickness (AWST), and LV posterior wall systolic thickness (PWST) were measured at M-mode, according to the American Society of Echocardiography recommendations. LV ejection fraction (EF), and LV mass were calculated from the measurements of wall thickness and chamber diameters. The LVEF was derived using the Teicholz formula (LVEF=[LVEDD3−LVESD3]/LVEDD3), as previously described. The transmitral LV outflow tract Doppler spectra (E, A, ET) was recorded from an apical four-chamber view, and the myocardial performance index (MPI) was calculated as the […] isovolumetric contraction time (ICT) and isovolumetric relaxation time (IRT) divided by the ejection time (ED. The investigators performing and reading the echocardiograms were blinded to the treatment allocation. A beta-adrenergic agonist, isoproterenol (Sigma Aldrich, St. Louis, MO, USA) 20 ng/mouse, was used to assess cardiac contractility in irradiated mice without SP treatment. Cardiac contractility (contractile reserve) was expressed as percentage change in LVEF measured at rest (LVEFr) and 3 min after isoproterenol injection (LVEFi) and calculated as [(LVEFi−LVEFr)/LVEFr]*100. Measurements of the contractile reserve were taken at baseline, 8, 30, 60, 90 and 180 days after IR. Echocardiogram assessment was performed by an operator blinded to treatment allocation.

C57L/J mice [2] = assay: Assessment of lung injury by breathing rate (MouseOx) after irradiation; assay type: in vivo; conditions: irradiated mice, 1 mg/kg/day SP for 6 days
Method: as §1
The breathing rate was measured every other week starting in week 6 using the Mouse Ox system (STARR Life Sciences Corp., Allison Park, PA). The animal was placed under ketamine/xylazine anesthesia and shaved in the area of analysis. 10 min post injection the animal was placed in a supine position with the sensor clipped to the upper thigh. The breathing rate was recorded for 3 min. The breathing rate was calculated using an algorithm in the Mouse Ox software.

C57L/J mice [3] = assay: Survival over 180 days post IR (Kaplan Meyer); assay type: in vivo; conditions: 11.5 Gy total thoracic dose, 1 mg/kg/day SP for 6 days
Method: as §1
To determine whether the improved cardiopulmonary function impacted overall survival the mice were followed over 180 days post IR.

[4] = test system: plasma IL-6, fibrinogen, neutrophil elastase, C-reactive protein; assay: Plasma ELISA of IL-6, fibrinogen, neutrophil elastase, C-reactive protein after irradiation; assay type: in vivo, mice
Method: At the time of sacrifice, blood was obtained by heart puncture into EDTA containing tubes and centrifuged at 3000 rpm for 25 mins to isolate the plasma. The following ELISA plates from Abcam were used for analysis: fibrinogen (ab213478), neutrophil elastase (ab252356), C-reactive protein (ab157712) and IL-6 (ab100713). Plasma samples were processed and ELISA kits were run according to manufacturer recommendations. All cytokines were reported with an absolute unit. Key molecular players of the coagulation cascade like tissue factor, thrombin, and fibrinogen are epidemiologically and mechanistically linked with an inflammatory component. Genetic and pharmacologic studies have unraveled pivotal roles for fibrinogen in determining the extent of local or systemic inflammation. Neutrophil elastase, a serine protease present in the azurophil granules of neutrophils, is released in an inflammatory state and disintegrates extracellular matrices due to its low substrate specificity, resulting in tissue injury. Neutrophil elastase is one of the most destructive enzymes in the body. Once unregulated, this enzyme disturbs the function of the lung permeability barrier and induces the release of pro-inflammatory cytokines with stimulation of acute lung injury. […] High levels of IL-6 in blood plasma may exacerbate the inflammatory response in the lung tissue, which ultimately causes IL-6 leakage to bronchoalveolae and further lung damage. High levels of IL-6 in the lung tissue may attract more inflammatory cells such as neutrophils, monocytes, macrophages to the injured local lung which ultimately causes serious damage to the lung and leads to chronic fibrosis. An acute raise of IL-6 in plasma can lead to increases in C Reactive Protein (CRP). C Reactive Protein (CRP) is produced by the liver and is a biomarker for general stress response to inflammation or infectious agents. It was shown that serum CRP level may be an effective indicator for predicting the occurrence of radiation pneumonitis and valuable factor for evaluating radiation-induced lung-injury extent.

[5] = test system: cytokines' mRNAs in lung tissue; assay: Cytokine mRNA expression (qPCR) in lung tissue after irradiation; assay type: in vivo, mice; conditions: 16 weeks after IR, mean±SD, vehicle 4.25±0.537

Structure (SMILES): C[C@H](O)C(=O)C1=Nc2c([nH]c(N)nc2=O)NC1 [SP, Sepiapterin]
- systolic and diastolic function response, evaluated by sex (C57L/J mice [1]; irradiated male vs female mice, 1 mg/kg SP): no significant differences in heart function response
- mitigation of loss in contractile reserve, evaluated by sex (C57L/J mice [1]; irradiated male vs female mice, SP 1 mg/kg): equally effective in mitigating this loss in contractile reserve
- contractile reserve (response to isoproterenol) (C57L/J mice [1]; irradiated mice (5 Gy TBI + 6.5 Gy thorax), SP 1 mg/kg oral once daily 6 days from 24 h post-IR, up to 180 days, vs vehicle): restore the response to beta-adrenergic stimulation by isoproterenol; also recorded: enhanced contractile reserve; also recorded: blunted the drop in the contractile reserve at all the time points
- myocardial performance index (Tei index) and isovolumetric relaxation time (IRT); systolic and diastolic function (C57L/J mice [1]; irradiated mice, SP 1 mg/kg oral once daily 6 days from 24 h post-IR, up to 180 days, vs vehicle): ameliorating the progressive increase in myocardial performance index and IRT; also recorded: improved systolic and diastolic function; also recorded: blunted the increase in the Tei index and IRT at all the time points
- time to development of lung injury (C57L/J mice [2]; vehicle 10 weeks): 14 weeks
- lung function (breathing rate) (C57L/J mice [2]; vs vehicle, 1 mg/kg/day): significantly reduced impairment of lung function at all points measured; also recorded: decreasing breathing frequency; also recorded: significantly improved pulmonary function at all points measured
- mice alive at 180 days (C57L/J mice [3]; untreated 40%): 71%
- overall survival (C57L/J mice [3]; vs irradiated without treatment, 1 mg/kg/day): significantly delayed and overall improved survival; also recorded: increased survival
- plasma level of IL-6 ([4]; 4 days after IR, vehicle 304.05±153.23): 97.00 ± 45.71 pg/mL
- plasma level of IL-6 ([4]; 8 days after IR, vehicle 606.09±72.72): 49.85 ± 39.36 pg/mL
- plasma level of fibrinogen ([4]; 8 days after IR, vehicle 948.77±98.54): 332.38 ± 109.02 µg/mL
- plasma level of neutrophil elastase ([4]; 180 days after IR, vehicle 25.21±6.54): 12.15 ± 2.87 ng/mL
- plasma level of IL-6 ([4]; 180 days after IR, vehicle 197.22±55.55): 40.06 ± 43.26 pg/mL
- plasma C reactive protein ([4]; any time-point after IR, SP vs vehicle): did not demonstrate significant difference
- relative expression of Spp2 mRNA [5]: 2.38±0.211
